The values that follow come from patent US20250002974A1, “PROTECTING FULLY FUNCTIONAL NUCLEOTIDES FROM DEGRADATION” (Illumina, Inc., priority 2023, published 2025).

Data set [1] is described as follows: ffN stress test with or without 10 mM DADMAC, purity by HPLC peak area percent. The data set is classed as physicochemical. The protocol: DADMAC (diallyldimethylammonium chloride): 100 μM ffNs were stressed in the presence of 10 mM DADMAC (FIG. 19) in 15 mM 3-(N-morpholino)propanesulfonic acid (MOPS) buffer and 5× glycine buffer (250 mM glycine pH 9.9, 250 mM NaCl, 5 mM ethylediaminetetraacetic acid (EDTA)). Each type of ffNs were tested: ffA, ffC, ffT, and ffG.
The samples were staged for 2 days at 40° C. in the glycine buffer, 2 days at 65° C. and 7 days at 4° C. in the MOPS buffer. DADMAC was tested to see if it could be added to the incorporation mix or ffN mixtures without causing any negative interactions with ffNs.

A short description of data set [2]: lyophilized ffN cakes with 30 mM cationic additive staged at 60° C. for 3 days, diphosphate by HPLC. As to conditions: 30 mM additive, 60° C. 3 days. The data set is classed as physicochemical. As to the method: FIG. 12 provides data showing the percent diphosphate ffC detected via HLPC after staging for 60° C. for 3 days (3D) in the presence of 30 mM imidazolium additive (lyophilized cakes; n=2; CTRL=control sample with no additive).
FIG. 13 provides data showing the percent diphosphate ffC detected via HLPC after staging for 60° C. for 3 days (3D) in the presence of 30 mM pyridinium additives (lyophilized cakes; n=2; CTRL=control with no additive).
FIG. 14 provides data showing the percent diphosphate ffC detected via HLPC after staging for 60° C. for 3 days (3D) in the presence of 30 mM quaternary additives (lyophilized cakes; n=2; CTRL=control with no additive).
The efficacies of the other cationic substrates were also tested. This was performed using lyophilized ffN cake samples that were formulated with and without said additives, and by staging at an arbitrarily selected stress condition of 60° C. for a period of 3 days.

For data set [3] the following is noted: 1 to 40 mM TBACL; 45° C. 7 days; solution format.
Text: As such, even higher concentrations of cations were not pursued.
A short description of data set [4]: stability of ffNs in dry state (TBMACL) or liquid state (CHAPS). The data set is classed as physicochemical. An excerpt: FIG. 24 provides data showing that addition of the cationic compound Tributylmethylammonium chloride (TBMACL) to ffNs in a dry state increases stability of triphosphate on the ffNs.
FIG. 25 provides data showing that the addition of CHAPS as well as CHAPS and TBMACL to ffNs in a liquid state increases the stability of intact ffNs.

The subject of another data set is Arthrobacter russicus. The data set is described as follows: bacterial growth in incorporation mix with TBMACL titration, plating for CFU/ml. Type of data set: cell-based. The protocol:
To confirm the biocidal effect of TBMACl within liquid sequencing reagents, a titration of TBMACL from 9 mM to 90 mM in incorporation mix was prepared. These experiments were carried out with the omission of polymerase and ffNs in the formulation, as they were not required for the further analysis. On day 0, samples were inoculated with 3×10^6 CFU/ml of the bacteria Arthrobacter russicus. The samples were staged at 12° C. for 0, 14 and 30 days, followed by plating to determine CFU/ml. FIGS. 26-27 provide data showing use of a bulky cationic compound to inhibit bacterial growth. More specifically, FIG. 26 illustrates A. russicus growth in a titration of TBMACL over 30 days at 12° C.; the data shown is on a linear Y axis. FIG. 27 illustrates the same data, with a logarithmic scale Y axis. It may be understood from FIGS. 26-27 that the greater the concentration of TBMACL, the greater the inhibition of bacterial growth. […] In the absence of TBMACL, the CFU/ml increase by about 1.8-fold over 30 days. […] The sample with 90 mM TBMACL appeared to kill essentially all bacteria by day 14, and all bacteria appeared to remain dead at day 30.

The nature of data set [5]: ffNs stored with TBMACL for 35 days at 35° C. or 45° C., diphosphate production. Type of data set: physicochemical. The protocol: TBMACL was tested to determine if it provided protection to the triphosphate of ffNs as heat stress increased. ffNs were stored with TBMACL for 35 days. In one of the storage conditions, the temperature was 35° C. and in the other storage condition, the temperature was 45° C. […] At 35° C. for 35 days TBMACL caused a 10% reduction in diphosphate production. This can be compared to 45° C. for 35 days where TBMACL caused a 17% reduction in diphosphate production.

Data set [6] can be described thus: ffNs stored with CHAPS at 45° C. for 7 or 21 days, percent peak area retention. Type of data set: physicochemical. As to the method:
CHAPS was tested to determine if it prevented degradation of ffNs as the level of heat stress increased. In one of the reaction conditions ffNs were stored with CHAPS for 7 days at 45° C., and the other reaction condition ffNs were stored with CHAPs for 21 days at 45° C.

Data set [7] in a line: ffN stability staged with surfactants in solution, 45° C. 7 days. Type of data set: physicochemical. Conditions: 45° C. for 7 days, solution format. The protocol: Each of the surfactants was tested at two different concentrations, 0.5% and 2%.

On to `C=CC[N+](C)(C)CC=C.[Cl-]` [DADMAC, diallyldimethylammonium chloride], for which the “effect of DADMAC on ffN purity and diphosphate” value in data set [1] (high temperatures, all 4 ffNs) was “higher % ffN purity as compared to control and lower levels of diphosphate”. Moreover, the “effect of DADMAC on ffNs” value in data set [1] (milder stress conditions) is “no negative effect”.

With `CC[n+]1ccc(C(=O)OC)cc1.[I-]` [EMPI, 1-ethyl-4-(methoxycarbonyl)pyridinium iodide], the “effect on triphosphate stability / diphosphate formation” value in data set [2] was “negatively impacted triphosphate stability”.

For `Cl.N` [ACL, ammonium chloride], the “effect on triphosphate stability / diphosphate formation” value in data set [2] was “higher level of diphosphate formation”.

Consider `CCCC[N+](CCCC)(CCCC)CCCC.[Cl-]` [TBACL, tetrabutylammonium chloride], for which the “dephosphorylation (percent diphosphate ffC)” value in data set [3] is given as “reduced dephosphorylation”.

As to `CCCC[N+](C)(CCCC)CCCC.[Cl-]` [TBMACL, tributylmethylammonium chloride], in data set [4] (ffNs in a dry state), the “stability of triphosphate species of ffNs” value was “increased stability of the trisphosphate species”. The “effect on bioburden load (CFU/ml)” value in the data set with Arthrobacter russicus (9 mM TBMACL, 30 days at 12° C.) is reported as “approximately static effect”. Also, the “reduction of CFU/ml” value in the data set on Arthrobacter russicus (22.5 mM TBMACL, 30 days at 12° C.) is given as 6 fold; in the data set on Arthrobacter russicus (45 mM TBMACL, 30 days at 12° C.) it was 8.6 fold; in the data set with Arthrobacter russicus (90 mM TBMACL, 30 days at 12° C.) it was “about 78,000 fold”. In addition, the “biocidal effect on bacterial growth” value in the data set with Arthrobacter russicus (titration 9 mM to 90 mM in incorporation mix) is on record as “dose-dependent biocidal effect”. For the same compound, the “reduction in diphosphate ffN formed vs control without additive” value in data set [2] was no more than 23%. In addition, the “reduction in diphosphate production” value came out at 10% in data set [5] (35° C. for 35 days) and 17% in data set [5] (45° C. for 35 days).

For the compound `C[C@H](CCC(=O)NCCC[N+](C)(C)CCCS(=O)(=O)[O-])[C@H]1CC[C@H]2[C@@H]3[C@H](O)C[C@@H]4C[C@H](O)CC[C@]4(C)[C@H]3C[C@H](O)[C@]12C` [CHAPS, 3-[(3-cholamidopropyl)dimethylammonio]-1-propanesulfonate], in data set [6] (7 days at 45° C.), the “improvement in percent peak area retention” value is given as 27%. Moreover, the “improvement in percent PA retention” value in data set [6] (21 days at 45° C.) amounted to 113%. In addition, the “stability of triphosphate species of ffNs” value in data set [4] (ffNs in a liquid state) was “increased the stability of trisphosphate species”. Moreover, the “increase in ffN retention against the control sample” value in data set [7] is reported as roughly 40%.

As to `CCCC[n+]1ccccc1.[Br-]` [BPB, 1-butylpyridinium bromide], the “reduction in diphosphate ffN formed vs control without additive” value in data set [2] is on record as “approximately 17%”.
